{"source": "patent EP0187355A1", "about": "“Process for preparing beta-lactam antibiotics” (E.R. Squibb & Sons, Inc., priority 1981, dated 1982)", "test_in_all_cases": "MIC, agar dilution", "type_in_all_cases": "cell-based", "key": {"[1]": {"tested_on": "Salmonella typhosa, 1195", "details": "K-10 agar, 10^4 CFU, 37°C", "procedure": "(§1) The following methodology is used to determine the minimum inhibitory concentration (hereinafter referred to as MIC) of the […] of this invention.\n(§2) The test organisms are grown in approximately 15-20 ml of Antibiotic Assay broth (Difco) by inoculating (in tubes) the broth with a loopful of the organism from a BHI (Difco) agar slant. The inoculated tubes are incubated at 37°C for 18 to 20 hours. These cultures are assumed to contain 10^9 colony forming units (hereinafter CFU) per milliliter. The cultures are diluted 1:100 to give a final inoculum level of 10^4 CFU; dilutions are made with K-10 broth^*.\n(§3) The compounds are dissolved in the appropriate diluent at a concentration of 1000 µg/ml. Twofold dilutions are made in K-10 broth resulting in a range from 1000 µg/ml to 0.5 µg/ml. 1.5 ml of each dilution is placed into individual square petri dishes to which 13.5 ml of K-10 agar^** is added. The final drug concentration in the agar ranges from 100 µg/ml to 0.05 µg/ml. Organism growth control plates containing agar only are prepared and inoculated before and after the test plates. The organisms are applied to the agar surface of each plate with the Denley Multipoint Inoculator (which delivers approximately 0.001 ml of each organism) resulting in a final inoculum level of 10^4 CFU on the agar surface.\n(§4) The plates are incubated at 37 °C for 18 hours and the MIC's are determined. The MIC is the lowest concentration of compound inhibiting growth of the organism.\n(§5) The tables that follow are tabulated results obtained when the B-lactams of this invention are tested against various organisms. The number following each organism refers to the number of the organism in the collection of E. R. Squibb & Sons,.Inc., Princeton, New Jersey. […] The symbol \"N.T.\" means not tested."}, "[2]": {"tested_on": "Serratia marcescens, 9783", "details": "K-10 agar, 10^4 CFU, 37°C", "procedure": "as §1, §2, §3, §4, §5"}, "[3]": {"tested_on": "Escherichia coli, 10857", "details": "K-10 agar, 10^4 CFU, 37°C", "procedure": "as §1, §2, §3, §4, §5"}, "[4]": {"tested_on": "Proteus rettgeri, 8479", "details": "K-10 agar, 10^4 CFU, 37°C", "procedure": "as §1, §2, §3, §4, §5"}, "[5]": {"tested_on": "Staphylococcus aureus, 2399", "procedure": "as §1, §2, §3, §4, §5"}, "[6]": {"tested_on": "Proteus mirabilis, 3855", "details": "K-10 agar, 10^4 CFU, 37°C", "procedure": "as §1, §2, §3, §4, §5"}, "[7]": {"tested_on": "Klebsiella aerogenes, 10440", "details": "K-10 agar, 10^4 CFU, 37°C", "procedure": "as §1, §2, §3, §4, §5"}, "[8]": {"tested_on": "Enterobacter aerogenes, 10078", "procedure": "as §1, §2, §3, §4, §5"}, "[9]": {"tested_on": "Acinetobacter calcoaceticus, 8333", "details": "K-10 agar, 10^4 CFU, 37°C", "procedure": "as §1, §2, §3, §4, §5"}, "[10]": {"tested_on": "Pseudomonas aeruginosa, 8329", "details": "K-10 agar, 10^4 CFU, 37°C", "procedure": "as §1, §2, §3, §4, §5"}, "[11]": {"tested_on": "Pseudomonas aeruginosa, 9545", "details": "K-10 agar, 10^4 CFU, 37°C", "procedure": "as §1, §2, §3, §4, §5"}, "[12]": {"tested_on": "Staphylococcus aureus, 10165", "procedure": "as §1, §2, §3, §4, §5"}, "[13]": {"tested_on": "Klebsiella pneumoniae, 9527", "details": "K-10 agar, 10^4 CFU, 37°C", "procedure": "as §1, §2, §3, §4, §5"}, "[14]": {"tested_on": "Shigella sonnei, 8449", "details": "K-10 agar, 10^4 CFU, 37°C", "procedure": "as §1, §2, §3, §4, §5"}, "[15]": {"tested_on": "Escherichia coli, 8294", "details": "K-10 agar, 10^4 CFU, 37°C", "procedure": "as §1, §2, §3, §4, §5"}, "[16]": {"tested_on": "Staphylococcus aureus, 1276", "procedure": "as §1, §2, §3, §4, §5"}, "[17]": {"tested_on": "Staphylococcus aureus, 2400", "procedure": "as §1, §2, §3, §4, §5"}, "[18]": {"tested_on": "Streptococcus faecalis, 9011", "procedure": "as §1, §2, §3, §4, §5"}, "[19]": {"tested_on": "Escherichia coli, 10896", "details": "K-10 agar, 10^4 CFU, 37°C, 18 hours", "procedure": "as §1, §2, §3, §4, §5"}, "[20]": {"tested_on": "Proteus vulgaris, 9416", "details": "K-10 agar, 10^4 CFU, 37°C", "procedure": "as §1, §2, §3, §4, §5"}, "[21]": {"tested_on": "Citrobacter freundii, 9518", "details": "K-10 agar, 10^4 CFU, 37°C", "procedure": "as §1, §2, §3, §4, §5"}, "[22]": {"tested_on": "Escherichia coli, 10909", "details": "K-10 agar, 10^4 CFU, 37°C, 18 hours", "procedure": "as §1, §2, §3, §4, §5"}, "[23]": {"tested_on": "Streptococcus agalactiae, 9287", "details": "Streptococcus agalactiae, 9287, 18 h, K-10 agar, 10^4 CFU, 37°C", "procedure": "as §1, §2, §3\nThe MIC is the lowest concentration of compound inhibiting growth of the organism.\nThe number following each organism refers to the number of the organism in the collection of E. R. Squibb & Sons,.Inc., Princeton, New Jersey. […] The symbol \"N.T.\" means not tested."}}, "note": "Counter-ions that a name gives are not always drawn."}
{"smiles": "C[C@@H]1[C@H](NC(=O)/C(=N\\OC(C)(C)C(=O)O)c2csc(N)n2)C(=O)N1S(=O)(=O)O", "note": "[Example 23, [3S-(3α(Z),4a]]-3-[[(2-Amino-4-thiazolyl) [(1-carboxy-1-methylethoxy)imino)acetyl]amino]-4-methyl-2-oxo-l-azetidinesulfonic acid, potassium salt (1:2)]", "values": [{"measurement": "M.I.C.", "setting": "[1]; 18 hours", "result": 0.05, "unit": "µg/mL"}, {"measurement": "M.I.C.", "setting": "[2]; 18 hours", "result": 0.2, "unit": "µg/mL"}, {"measurement": "M.I.C.", "setting": "[3]; 18 hours", "result": 0.1, "unit": "µg/mL"}, {"measurement": "M.I.C.", "setting": "[4]; 18 hours", "result": 0.05, "unit": "µg/mL"}, {"measurement": "M.I.C.", "setting": "[5]; Staphylococcus aureus, 2399, K-10 agar, 10^4 CFU, 37°C, 18 hours", "result": "- (A dash (-) in the tables means that the compound tested did not show activity against the particular organism at 100 µg/ml)"}, {"measurement": "M.I.C.", "setting": "[6]; 18 hours", "result": 0.05, "unit": "µg/mL"}, {"measurement": "M.I.C.", "setting": "[7]; 18 hours", "result": 0.4, "unit": "µg/mL"}, {"measurement": "M.I.C.", "setting": "[8]; Enterobacter aerogenes, 10078, K-10 agar, 10^4 CFU, 37°C, 18 hours", "result": 0.8, "unit": "µg/mL"}, {"measurement": "M.I.C.", "setting": "[9]; 18 hours", "result": 25, "unit": "µg/mL"}, {"measurement": "M.I.C.", "setting": "[10]; 18 hours", "result": 1.6, "unit": "µg/mL"}, {"measurement": "M.I.C.", "setting": "[11]; 18 hours", "result": 0.4, "unit": "µg/mL"}, {"measurement": "M.I.C.", "setting": "[12]; Staphylococcus aureus, 10165, K-10 agar, 10^4 CFU, 37°C, 18 hours", "result": "- (A dash (-) in the tables means that the compound tested did not show activity against the particular organism at 100 µg/ml)"}, {"measurement": "M.I.C.", "setting": "[13]; 18 hours", "result": 0.05, "unit": "µg/mL"}, {"measurement": "M.I.C.", "setting": "[14]; 18 hours", "result": 0.1, "unit": "µg/mL"}, {"measurement": "M.I.C.", "setting": "[15]; 18 hours", "result": 0.2, "unit": "µg/mL"}, {"measurement": "M.I.C.", "setting": "[16]; Staphylococcus aureus, 1276, K-10 agar, 10^4 CFU, 37°C, 18 hours", "result": "- (A dash (-) in the tables means that the compound tested did not show activity against the particular organism at 100 µg/ml)"}, {"measurement": "M.I.C.", "setting": "[17]; Staphylococcus aureus, 2400, K-10 agar, 10^4 CFU, 37°C, 18 hours", "result": "- (A dash (-) in the tables means that the compound tested did not show activity against the particular organism at 100 µg/ml)"}, {"measurement": "M.I.C.", "setting": "[18]; Streptococcus faecalis, 9011, K-10 agar, 10^4 CFU, 37°C, 18 hours", "result": "- (A dash (-) in the tables means that the compound tested did not show activity against the particular organism at 100 µg/ml)"}, {"measurement": "M.I.C.", "setting": "[19]", "result": 0.2, "unit": "µg/mL"}, {"measurement": "M.I.C.", "setting": "[20]; 18 hours", "result": 0.05, "unit": "µg/mL"}, {"measurement": "M.I.C.", "setting": "[21]; 18 hours", "result": 0.4, "unit": "µg/mL"}]}
{"smiles": "CC1C(NC(=O)C(=NOC(C)(C)C(=O)O)c2csc(N)n2)C(=O)N1S(=O)(=O)O", "note": "(stereo not drawn) [Example 6, [3S-[3α (Z) ,4β]]3-[[(2-Amino-4-thiazolyl) [[1-carboxy-1-methylethoxy)imino]acetyl)amino)-4-methyl-2-oxo-1-azetidinesulfonic acid, dipotassium salt]", "values": [{"measurement": "MIC", "setting": "[1]; Salmonella enterica, TYPHOSA, 18 h", "result": "< 0.05", "unit": "µg/mL"}, {"measurement": "MIC", "setting": "[22]", "result": "< 0.05", "unit": "µg/mL"}, {"measurement": "MIC", "setting": "[2]; Serratia marcescens, 9783, 18 h", "result": 0.2, "unit": "µg/mL"}, {"measurement": "MIC", "setting": "[3]; Escherichia coli, 10857, 18 h", "result": "< 0.05", "unit": "µg/mL"}, {"measurement": "MIC", "setting": "[4]; Providencia rettgeri, 8479, 18 h", "result": "< 0.05", "unit": "µg/mL"}, {"measurement": "MIC", "setting": "[5]; Staphylococcus aureus, 2399, 18 h", "result": "> 100", "unit": "µg/mL"}, {"measurement": "MIC", "setting": "[6]; Proteus mirabilis, 3855, 18 h", "result": "< 0.05", "unit": "µg/mL"}, {"measurement": "MIC", "setting": "[7]; Klebsiella aerogenes, 10440, 18 h", "result": 0.4, "unit": "µg/mL"}, {"measurement": "MIC", "setting": "[8]; Klebsiella aerogenes, 10078, 18 h", "result": 0.4, "unit": "µg/mL"}, {"measurement": "MIC", "setting": "[9]; Acinetobacter calcoaceticus, 8333, 18 h", "result": 100, "unit": "µg/mL"}, {"measurement": "MIC", "setting": "[10]; Pseudomonas aeruginosa, 8329, 18 h", "result": 3.1, "unit": "µg/mL"}, {"measurement": "MIC", "setting": "[11]; Pseudomonas aeruginosa, 9545, 18 h", "result": 0.8, "unit": "µg/mL"}, {"measurement": "MIC", "setting": "[12]; Staphylococcus aureus, 10165, 18 h", "result": "> 100", "unit": "µg/mL"}, {"measurement": "MIC", "setting": "[13]; Klebsiella pneumoniae, 9527, 18 h", "result": "< 0.05", "unit": "µg/mL"}, {"measurement": "MIC", "setting": "[14]; Shigella sonnei, 8449, 18 h", "result": 0.2, "unit": "µg/mL"}, {"measurement": "MIC", "setting": "[15]; Escherichia coli, 8294, 18 h", "result": 0.4, "unit": "µg/mL"}, {"measurement": "MIC", "setting": "[16]; Staphylococcus aureus, 1276, 18 h", "result": "> 100", "unit": "µg/mL"}, {"measurement": "MIC", "setting": "[17]; Staphylococcus aureus, 2400, 18 h", "result": "> 100", "unit": "µg/mL"}, {"measurement": "MIC", "setting": "[18]; Enterococcus faecalis, 9011, 18 h", "result": "> 100", "unit": "µg/mL"}, {"measurement": "MIC", "setting": "[19]", "result": 0.2, "unit": "µg/mL"}, {"measurement": "MIC", "setting": "[20]; Proteus vulgaris, 9416, 18 h", "result": "< 0.05", "unit": "µg/mL"}, {"measurement": "MIC", "setting": "[21]; Citrobacter freundii, 9518, 18 h", "result": 0.4, "unit": "µg/mL"}, {"measurement": "MIC", "setting": "[23]", "result": 50, "unit": "µg/mL"}]}
